Data on 14 compounds can be found in ChEMBL document CHEMBL1201862, “PubChem BioAssay data set” (2004).

Each structure is given as a SMILES string.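 How tested: cells in 96-well plates exposed to compound for 48 hours at five concentrations. Here, GI50 denotes the concentration required for 50% inhibition of growth.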 Activity calls are given as the source filed them. Rule as the data show it: active = GI50 up to about 1.1 µM and inactive = higher.

Holding throughout (test): inhibition of tumour cell growth, NCI panel, 48 h
Assay [1] relates to T47D.
Assay [2] has as its system A498.
The subject of assay [3] is HCT-116.
Assay [4] relates to HOP-92.
The subject of assay [5] is SNB-19.
For assay [6], the system named is K562.
Assay [7] has as its system SF-295.
Assay [8] relates to ACHN.
The test system of assay [9] is U-251.
Assay [10] has as its system NCI-H23.
The test system of assay [11] is SK-MEL-2.
The test system of assay [12] is CAKI-1.
Assay [13] concerns HCT-15.
The test system of assay [14] is SN12C.
Assay [15] concerns SK-MEL-5.
Assay [16] concerns KM12.
The subject of assay [17] is MCF7.

Turning to `COC(=O)c1cc(O)nc(O)n1`, the GI50 in assay [1], in [2], in assay [3], in assay [4], in assay [5] and in [6] was > 100 µM (inactive) throughout. In addition, the GI50 in [7], in [8], in [9], in assay [10], in assay [11] and in assay [12] was > 100 µM (inactive) each time. Further, the GI50 is > 100 µM in assay [13], > 100 µM (inactive) in assay [14] and > 100 µM (inactive) in assay [15].
For the compound `NC(=O)NC(=O)c1cnccn1`, the GI50 in [2], in assay [3], in [4], in assay [5], in assay [16] and in assay [6] was > 100 µM (inactive) throughout. In addition, the GI50 in assay [17], in assay [7], in [8], in assay [9], in assay [10] and in assay [11] was > 100 µM (inactive) in each case. The GI50 is > 100 µM (inactive) in assay [12], > 100 µM in [13], > 100 µM (inactive) in [14] and > 10 µM (inactive) in [15].
As for `COc1cccc2c1OC(c1ccc(C#N)cc1)C([N+](=O)[O-])=C2` (stereo not given), the GI50 in assay [2] was 1.84 µM (inactive); in assay [3], 1.48 µM (inactive); in assay [4], 1.62 µM (inactive); in assay [5], 6.46 µM (inactive); in assay [6] it was 1.21 µM (inactive); in assay [17], 1.5 µM (inactive). For the same compound, the GI50 in [7] was 6.14 µM (inactive); in assay [8], 1.77 µM (inactive); in [9] it was 1.86 µM (inactive); in assay [10], 1.71 µM (inactive); in [11], 2.01 µM (inactive); in assay [12] it was 0.908 µM (active). For the same compound, the results for the GI50 in [13], in assay [14] and in assay [15] were 1.7 µM, 2.04 µM (inactive) and 1.53 µM (inactive), respectively.
In the case of `O=C(CNc1c(Cl)cccc1Cl)NC1C=Cc2ccc(S(=O)(=O)Nc3c(Cl)cccc3Cl)cc2C1=O` (stereo not given), the GI50 is > 100 µM (inactive) in [3]; 18.5 µM (inactive) in assay [4]; > 100 µM (inactive) in assay [5]; 35.9 µM (inactive) in assay [16]; > 100 µM (inactive) in assay [6]; > 100 µM (inactive) in [17]. For the same compound, the GI50 in [7] was 70.8 µM (inactive); in assay [8], > 100 µM (inactive); in assay [9] it was > 100 µM (inactive); in assay [10], > 100 µM (inactive); in assay [11], 56.8 µM (inactive); in [12], 47.5 µM (inactive). Besides, the GI50 in assay [13] is 79.1 µM; in [14] it was > 100 µM (inactive).
Turning to `CN(C)CCOC1(Cc2ccc(Cl)cc2Cl)CCC(C(C)(C)C)CC1` (stereo not given), the GI50 was 2.88 µM (inactive) in [2]; 1.6 µM (inactive) in assay [3]; 1.75 µM (inactive) in [5]; 1.77 µM (inactive) in assay [16]; 1.6 µM (inactive) in assay [6]; 2.01 µM (inactive) in assay [17]. In addition, the GI50 is 1.65 µM (inactive) in assay [7]; 2.99 µM (inactive) in [8]; 1.46 µM (inactive) in [9]; 2.5 µM (inactive) in [10]; 1.72 µM (inactive) in assay [11]; 2.25 µM (inactive) in assay [12]. In addition, the GI50 is 1.85 µM in assay [13], 1.65 µM (inactive) in [14] and 1.56 µM (inactive) in assay [15].
Consider `Clc1sc(Cl)c2c1[C@H](Br)C[C@@H]2Cl`, for which the GI50 in [1] is 36.4 µM (inactive); in [3], 27.9 µM (inactive); in assay [5], 57.7 µM (inactive); in assay [16], 39.8 µM (inactive); in assay [6] it was 38.5 µM (inactive); in assay [17], 12.5 µM (inactive). In addition, the GI50 in [7] is 99.5 µM (inactive); in assay [8], 18.8 µM (inactive); in assay [9], 27.7 µM (inactive); in assay [10] it was 17.8 µM (inactive); in assay [11] it was 59.8 µM (inactive); in assay [12], 26.2 µM (inactive). The GI50 in assay [13] is 17.1 µM; in assay [14], 29.5 µM (inactive); in [15], 46.9 µM (inactive).
For `CC1(C)CNC(=O)C2(CCCO2)CNC(C)(C)CNC(=O)C2(CCCO2)CN1` (stereo not given), the GI50 in assay [1], in assay [3], in assay [4], in assay [5], in assay [16] and in [6] was > 10 µM (inactive) throughout. The GI50 in [17], in assay [7], in [8], in assay [9], in [10] and in [12] was > 10 µM (inactive) in each case. For the same compound, the GI50 in assay [13] was > 10 µM; in assay [14] it was > 10 µM (inactive); in assay [15], > 10 µM (inactive).
Consider `CN(C)CCNc1ncnc2[nH]c(-c3ccc4ccccc4c3)nc12`, for which the GI50 in [1], in assay [3], in [5], in [16], in [6] and in assay [17] was > 100 µM (inactive) throughout. Further, the GI50 in assay [7], in [8], in assay [9], in [10], in assay [11] and in assay [12] was > 100 µM (inactive) in each case. Moreover, the GI50 is > 100 µM in [13], > 100 µM (inactive) in assay [14] and > 100 µM (inactive) in assay [15].
`CCOC(=O)C1OC(=O)CC1C1(C(=O)OCC)C=CC(=O)O1` (stereo not given): the GI50 in assay [3], in assay [4], in assay [5], in assay [16], in assay [6] and in [17] was > 100 µM (inactive) each time. The GI50 in assay [7] was > 100 µM (inactive); in assay [8], > 100 µM (inactive); in assay [9], 93.8 µM (inactive); in [10], > 100 µM (inactive); in assay [11], > 100 µM (inactive); in [12] it was > 100 µM (inactive). Besides, the GI50 in [13] was > 100 µM; in [14], > 100 µM (inactive); in assay [15], > 100 µM (inactive).
Regarding `CC(=O)OCC1OC(c2nnc(C)o2)=CC(OC(C)=O)C1OC(C)=O` (stereo not given), the GI50 in assay [2], in assay [3], in assay [5], in [16], in [6] and in [17] was > 100 µM (inactive) throughout. In addition, the GI50 in [7], in assay [8], in assay [9], in [10], in assay [12] and in [14] was > 100 µM (inactive) each time. Further, in [15], the GI50 is > 100 µM (inactive).
With `CC(C)(C)N/C(N)=N/C#N`, the GI50 in assay [3], in assay [4], in [5], in assay [6], in assay [17] and in [8] was > 100 µM (inactive) each time. Further, the GI50 in [9] was > 100 µM (inactive); in assay [10], > 100 µM (inactive); in assay [11] it was > 100 µM (inactive); in assay [12] it was > 100 µM (inactive); in [13], > 100 µM; in [14], > 100 µM (inactive). Moreover, in assay [15], the GI50 was > 100 µM (inactive).
On to `CC(C)(C)OC(=O)n1c2ccccc2c2c(=O)nc(N3CCCCC3)sc21`, for which the GI50 in assay [1], in assay [2], in [4], in [5], in assay [16] and in assay [6] was > 100 µM (inactive) in each case. The GI50 in assay [7], in assay [8], in assay [9], in [10], in assay [11] and in assay [12] was > 100 µM (inactive) throughout. The GI50 in [13] is > 100 µM; in [14] it was > 100 µM (inactive); in assay [15], > 100 µM (inactive).
As for `COc1ccc(/C=C2\S/C(=N/Nc3nc(-c4ccccc4)cs3)NC2=O)cc1OC`, the GI50 in assay [3] is 17.1 µM (inactive); in assay [4], 12.6 µM (inactive); in assay [5] it was 25.6 µM (inactive); in assay [16] it was 24.5 µM (inactive); in [17] it was 19.2 µM (inactive); in [7], 25.3 µM (inactive). The GI50 in assay [8] is 24.7 µM (inactive); in assay [9] it was 26.3 µM (inactive); in [10], 19.1 µM (inactive); in assay [11], 19.1 µM (inactive); in assay [12], 31.8 µM (inactive); in assay [13], 21.5 µM. In addition, the GI50 in assay [14] is 17.8 µM (inactive); in [15], 15.5 µM (inactive).
With `COC(=O)C(Cc1ccccc1)NC(=O)CCCNC(=O)OCc1ccccc1` (stereo not given), the GI50 in [1] is 71.3 µM (inactive); in assay [3], > 100 µM (inactive); in assay [4], 99.1 µM (inactive); in assay [5], > 100 µM (inactive); in assay [16] it was > 100 µM (inactive); in assay [6], > 100 µM (inactive). The GI50 in [17] was > 100 µM (inactive); in assay [7] it was > 100 µM (inactive); in [8] it was 33 µM (inactive); in [9] it was > 100 µM (inactive); in [10], > 100 µM (inactive); in assay [12], > 100 µM (inactive). In addition, the values for the GI50 in [13], in [14] and in [15] were > 100 µM, > 100 µM (inactive) and 22.4 µM (inactive), respectively.
